In patent publication US9034303B2, “Neuroprotective and neuro-restorative iron chelators and monoamine oxidase inhibitors and uses thereof” (priority 2010, dated 2015):
Entries after “also recorded” stand apart in the source; their conditions may differ.

Legend:
[1] = tested on: 6-OHDA-induced lesions of nigrostrial dopamine neurons; conditions: prior publications; cited from earlier work
[2] = prior publications; cited from earlier work
in vitro = conditions: human
Description: The cytotoxicity of compound 3 was assessed in vitro using two standard cell lines, HepG2, derived from a human hepatocellular carcinoma, and SH-SY5Y, derived from a human neuroblastoma, both in the presence and absence of excess iron.
HepG2 cells were maintained at ˜5% CO2, 37° C., and 95% relative humidity in minimal essential media (MEM) supplemented with 10% fetal bovine serum plus 0.1 mM non-essential amino acids, 2 mM L-glutamine, and penicillin/streptomycin. SH-SY5Y cells were maintained at ˜5% CO2, 37° C., and 95% relative humidity in a mixture of minimal essential media (MEM) and F12 K media (1:1, v:v) supplemented with 10% fetal bovine serum plus 0.1 mM non-essential amino acids, 2 mM L-glutamine, and penicillin/streptomycin. The cells were subcultured every two to three days and plated in tissue culture treated opaque white 96-well plates at a density of 1×10^4 cells/well and incubated at ˜5% CO2, 37° C., and 95% relative humidity overnight prior to initiation of the assay.
A series of DMSO stocks of the test article at 100× of the final concentration were diluted 1:100 with fresh culture media (final DMSO concentration was 1%). The media from the plated cells was removed and replaced with 100 μL of media containing test article or tamoxifen with final concentrations ranging between 0.01 to 1000 μM in triplicate. Wells containing no cells were used as background controls. Tamoxifen was used as a known positive control and DMSO alone was used as a vehicle control. The cells were incubated for four hours at ˜5% CO2, 37° C., and 95% relative humidity.
Cell viability was determined using a commercially available kit to determine ATP levels by luminescence. Briefly, the buffer and lyophilized substrate from the kit were equilibrated to room temperature. The buffer was used to reconstitute the substrate just prior to addition to the wells of the cell plate (100 μL per well). The plate was placed into the Tecan Infinite M200 plate reader, agitated for 10 minutes followed by a 10 minute wait period, then read using an integration time of 0.5 seconds with no attenuation.
The mean luminescence from the test article treated cells was compared to that treated by DMSO only.

MAO-B = MAO-B (Mus musculus (Mouse), UniProt Q8BW75); test: In vivo MAO-B inhibition in mice after a single i.p. injection; conditions: small intestine, one hour later
Description: (§1) For the MAO-inhibition study, mice (6 mice in each group) were injected intraperitoneally (i.p.) with compound 3 at the dosage of 5 or 10 mg/kg; or with M30 at the dosage of 10 mg/kg. Control mice received saline (0.1 mL) i.p. One hour later the mice were killed by cervical dislocation, while striatum and small intestine were removed rapidly and frozen in liquid nitrogen for further analysis. FIGS. 3 and 4 show MAO-A/MAO-B in vivo activity of compound 3 compared to the activity of M30. FIG. 3 presents an MAO inhibition in striatum, and FIG. 4 presents an MAO inhibition in intestine. The percent inhibition was computed based on comparison to control animals.

[3] = Stability in aqueous solution (PBS or saline) followed by HPLC; type: physicochemical; conditions: for Amount of compound remaining (%): 25° C., 0.5 mM
Description: (§2) Using high pressure liquid chromatography (HPLC), the stability of each of the tested compounds was determined by following its respective chemical character over time in either phosphate buffered saline (PBS) and/or 0.85% saline solution (sodium chloride). In each case, 0.5 mM of the tested compound in PBS or saline solution was incubated at 25° C. or at 37° C. for 20 hours or, in some cases, up to two days (48 hours).

[4] = Cytotoxicity experiments conducted in the past with M30, HepG2; type: cell-based; conditions: human, HepG2 cells, methods not identical, read-out: LC50 (μM) HepG2
Description: (§3) Moreover, the outcomes of the cytotoxicity experiments compare very favorably with those conducted in the past with M30.

[5] = Cytotoxicity experiments conducted in the past with M30, A549; type: cell-based; conditions: human, A549 cells, methods not identical, read-out: LC50 (μM) A549
Description: as §3

[6] = Cytotoxicity experiments conducted in the past with M30, SHSY-5Y; type: cell-based, human; conditions: human, SH-SY5Y cells; experiments conducted in the past, methods not identical; read-out: LC50 (μM) SHSY-5Y
Description: as §3

SHSY-5Y = test: as above; type: cell-based, human; conditions: past experiments
Description: as §3

MAO-A = MAO-A (Mus musculus (Mouse), UniProt Q64133); type: in vivo, mice; conditions: mice, single i.p. injection, small intestine, one hour later
Description: as §1

[7] = Follow-up stability experiment at 37° C. in PBS; type: physicochemical
Description: as §2
In addition, in a follow-up experiment the instability of M30, and the stability of compounds 3, 7 and 8 was also confirmed at 37° C. in PBS, Table 2, below.

Sequence of MAO-A (Q64133 whole entry): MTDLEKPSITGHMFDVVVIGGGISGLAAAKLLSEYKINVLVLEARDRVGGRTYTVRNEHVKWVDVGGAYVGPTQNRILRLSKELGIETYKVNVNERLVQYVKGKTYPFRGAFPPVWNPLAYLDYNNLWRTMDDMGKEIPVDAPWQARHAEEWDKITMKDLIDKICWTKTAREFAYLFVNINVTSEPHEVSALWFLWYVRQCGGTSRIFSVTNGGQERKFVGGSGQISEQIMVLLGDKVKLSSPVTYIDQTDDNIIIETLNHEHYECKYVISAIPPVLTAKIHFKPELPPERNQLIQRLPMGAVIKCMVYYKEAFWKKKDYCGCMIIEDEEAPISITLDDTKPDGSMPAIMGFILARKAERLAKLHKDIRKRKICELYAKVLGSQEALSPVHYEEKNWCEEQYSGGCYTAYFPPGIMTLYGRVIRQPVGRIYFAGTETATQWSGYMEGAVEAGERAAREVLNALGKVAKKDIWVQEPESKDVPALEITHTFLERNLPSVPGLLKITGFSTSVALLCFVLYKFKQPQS
Sequence of MAO-B (Q8BW75 whole entry): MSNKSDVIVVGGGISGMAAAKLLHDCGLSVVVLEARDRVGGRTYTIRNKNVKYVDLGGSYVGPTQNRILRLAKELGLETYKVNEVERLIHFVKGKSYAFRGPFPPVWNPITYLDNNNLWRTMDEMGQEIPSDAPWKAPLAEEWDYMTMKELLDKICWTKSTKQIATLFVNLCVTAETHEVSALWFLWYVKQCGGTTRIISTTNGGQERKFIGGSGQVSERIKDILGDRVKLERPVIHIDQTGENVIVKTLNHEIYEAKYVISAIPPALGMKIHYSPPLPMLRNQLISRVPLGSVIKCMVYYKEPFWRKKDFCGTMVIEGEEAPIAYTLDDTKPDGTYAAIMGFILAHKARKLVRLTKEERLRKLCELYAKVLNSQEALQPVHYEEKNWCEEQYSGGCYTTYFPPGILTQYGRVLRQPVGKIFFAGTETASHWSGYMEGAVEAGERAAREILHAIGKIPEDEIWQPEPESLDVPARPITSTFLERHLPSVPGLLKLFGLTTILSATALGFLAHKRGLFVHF

OCCN1CCN(Cc2ccc(O)c3ncccc23)CC1 [5-[4-(2-hydroxyethyl)piperazin-1-ylmethyl]-8-hydroxyquinoline]
Activity against 6-OHDA in an animal model of Parkinson's disease [1]: active against 6-hydroxydopamine (6-OHDA)
Crossing of the BBB [2]: able to cross the BBB

CC(=O)N(O)CCCCCNC(=O)CCC(=O)N(O)CCCCCNC(=O)CCC(=O)N(O)CCCCCN [Desferal]
Activity against 6-OHDA in an animal model of Parkinson's disease [1]: protected the rats against 6-OHDA-induced lesions
Crossing of the BBB [2]: does not cross the BBB

CC/C(=C(\c1ccccc1)c1ccc(OCCN(C)C)cc1)c1ccccc1 [tamoxifen, reference compound]
CC50 at 4 h (in vitro): ~50 µM
CC50 at 4 h (in vitro; LC50 (μM) SHSY-5Y): ~50 µM

C#CCN(C)Cc1ccc(O)c2ncccc12 [Compound M30, 5-[(methyl-2-propyn-1-ylamino)methyl]-8-quinolinol, reference compound]
MAO-B inhibition in intestine (MAO-B): Reduced inhibition in the intestinal tissue versus striatal tissue
Activity against 6-OHDA in an animal model of Parkinson's disease [1]: active against 6-hydroxydopamine (6-OHDA)
Stability in aqueous solution (in words) ([3]; PBS and/or saline solution): unstable in aqueous solution; also recorded: degraded in both PBS and saline solution
Amount of compound remaining (%) ([3]; PBS, 0.5 hours): 76%
Amount of compound remaining (%) ([3]; PBS, 2 hours): 57%
Amount of compound remaining (%) ([3]; PBS, 20 hours): 28%
Amount of compound remaining (%) ([3]; PBS, 48 hours): 15%
Amount of compound remaining (%) ([3]; saline, 0.5 hours): 98%
Amount of compound remaining (%) ([3]; saline, 2 hours): 85%
Amount of compound remaining (%) ([3]; saline, 20 hours): 22%
CC50 [4]: 842 µM
CC50 [5]: > 1000 µM
CC50 [6]: > 1000 µM
SHSY-5Y cell death (%) (SHSY-5Y; with iron, M30 1 μM): 0.69%
SHSY-5Y cell death (%) (SHSY-5Y; with iron, M30 10 μM): 78.6%
SHSY-5Y cell death (%) (SHSY-5Y; with iron, M30 100 μM): 38.5%
SHSY-5Y cell death (%) (SHSY-5Y; without iron, M30 1 μM): −2. %
SHSY-5Y cell death (%) (SHSY-5Y; without iron, M30 10 μM): 1.0%
SHSY-5Y cell death (%) (SHSY-5Y; without iron, M30 100 μM): 19. %
MAO-A inhibition in intestine (MAO-A): Reduced inhibition in the intestinal tissue versus striatal tissue
Crossing of the BBB [2]: able to cross the BBB
Stability at 37° C. in PBS (in words) [7]: instability
Amount of compound remaining (%) ([7]; 0.5 hours): 50.8%
Amount of compound remaining (%) ([7]; 1 hour): 54.9%
Amount of compound remaining (%) ([7]; 2 hours): 45.1%
Amount of compound remaining (%) ([7]; 4 hours): 24.3%
Amount of compound remaining (%) ([7]; 8 hours): 14.4%
Amount of compound remaining (%) ([7]; 24 hours): 4.26%
